Where two headings read alike, the source gives them in different places. Residues, ends and D or L forms follow the SMILES beside them.
What was measured:
[1] = tested on: Drosophila melanogaster of LA strain; assay: Life span and ageing rate, LA strain; assay type: in vivo; settings: for ALS / Me / LSmax (maximal life span): 0.00001% of medium weight; for LSmax (maximal life span): in days
From the text: The impact produced by L-Ala-L-Glu-L-Asp-Gly tetrapeptide (SEQ ID NO: 1) on catalase activity, the content of the products of lipid peroxide oxidation (LPO), life span, and the ageing rate were studied in Drosophila melanogaster of LA strain.
One-day old flies were placed in test tubes, 10 individuals of the same sex in each. Every 2 days they were transferred to a fresh medium taking into consideration the number of deceased individuals. The average and maximal life spans were defined. The ageing rate was calculated by the parameters of Gomperz equation.
L-Ala-L-Glu-L-Asp-Gly tetrapeptide (SEQ ID NO: 1) was applied in the larvae of the 3rd age in dose 0.00001% of the culture medium weight, which constituted approximately 0.015 mg/100 ml. Catalase activity was estimated by generally accepted methods in the homogenates of adult 14 days old flies. The experiment was carried out with a subsequent repetition.
Regression and dispersal analyses served as the basic technique of statistic processing. The authenticity of differences was confirmed by the method of minimal relevant diversity.

[2] = tested on: Drosophila melanogaster of EA strain; assay: Chemoluminescence intensity in homogenates of 7-day old flies of EA strain; assay type: in vivo
Experimental: Drosophila melanogaster of EA strain served as a model for studying the influence of L-Ala-L-Glu-L-Asp-Gly tetrapeptide (SEQ ID NO: 1) on catalase activity, tissue chemoluminescence, and life span.
L-Ala-L-Glu-L-Asp-Gly tetrapeptide (SEQ ID NO: 1) was applied in the larvae of the 3rd age in dose 0.00001% of the culture medium weight, which constituted approximately 0.015 mg/100 ml. Catalase activity and the intensity of chemoluminescence were estimated in the homogenates of adult 7-day old flies by generally accepted methods. The experiment was conducted with a subsequent 5 repetition.
Regression and dispersal analyses served as the basic technique of statistic processing.

[3] = tested on: Drosophila melanogaster of “wild” Canton-S strain; settings: for ALS ± statistic errors / Alterations in ALS: Canton-S; for Alterations in ALS: versus control
Experimental: In this research Drosophila melanogaster of “wild” Canton-S strain were employed.
L-Ala-L-Glu-L-Asp-Gly tetrapeptide (SEQ ID NO: 1) in the solution form was introduced into the culture medium provided for the growth of insects, which was cooled down to 50-60° C., with subsequent careful stirring and depositing it into test tubes.
To make the conditions of both the control and experimental population development identical, an amount of sodium chloride equal to that used for L-Ala-L-Glu-L-Asp-Gly tetrapeptide (SEQ ID NO: 1) solution was introduced into the culture medium for the control. The concentration of all the substances employed was calculated by the ratio to the mass of the culture medium provided for reproduction.
4-day old female flies underwent a randomly selected mating with males for 72 hours, one couple per each test tube, after which parental couples were removed from the test tubes. To form every new generation the posterity of 50 to 80 couples was used.
Life span (LS) was investigated on laboratory populations, each of them consisting of 90 individuals of each sex. Immediately after hatching the flies were randomly placed in test tubes, 10 individuals in each. Substitution of the culture medium was carried out 3 times a week.
Average values (ALS) and standard errors calculated by the traditional method were applied as life span distribution parameters. Average values were compared to each other with the application of Student t-criterion.
For experimental study 6 concentrations of L-Ala-L-Glu-L-Asp-Gly tetrapeptide (SEQ ID NO: 1) were selected: 0.01×, 0.1×, 1×, 5×, 7.5×, and 12.5×10^−6% of the culture medium weight.

catalase = assay: Catalase activity in 14-day old flies of HEM strain; assay type: in vivo, Drosophila melanogaster of HEM strain; settings: 0.00001% of culture medium weight
From the text: L-Ala-L-Glu-L-Asp-Gly tetrapeptide (SEQ ID NO: 1) was applied in Drosophila melanogaster larvae of the 2nd age of HEM strain selected for a high ageing rate (20). HEM strain is characterised by the unique dynamics of embryonic mortality, which consists in an increased frequency of early embryonic lethal outcomes from 65% on the 1st day of egg-laying up to 95% on the 4th day, in a reduced average life span (29 days), and in a raised intensity of lipid peroxide oxidation.
L-Ala-L-Glu-L-Asp-Gly tetrapeptide (SEQ ID NO: 1) was added in proportion 0.00001% of the culture medium weight, which was an extremely low dose. The doses described in literature on the influence of various substances on Drosophila melanogaster usually ranged from 0.001 to 0.01%.
Biochemical parameters were studied on 14-day old flies. Among them the activity of catalase activity and the intensity of tissue chemoluminescence were analysed (21, 22, 23). Catalase is the basic enzyme of anti-oxidation defence. […] Luminol-dependent chemoluminescence, induced by hydrogen peroxide, reflects the stage of active oxygen forms in tissues. Thus, a decrease in the chemoluminescence intensity indicates an increase in the organism ability to resist oxidative stress.

[4] = tested on: patients suffering aspirin bronchial asthma; assay: Clinical application in patients suffering aspirin bronchial asthma; assay type: in vivo
[5] = females, concentration 0.01 ×10^−6%
[6] = females, concentration 0.1 ×10^−6%
[7] = females, concentration 1.0 ×10^−6%
[8] = females, concentration 5.0 ×10^−6%
[9] = females, concentration 7.5 ×10^−6%
[10] = females, concentration 12.5 ×10^−6%
[11] = males, concentration 0.01 ×10^−6%
[12] = males, concentration 0.1 ×10^−6%
[13] = males, concentration 1.0 ×10^−6%
[14] = males, concentration 5.0 ×10^−6%
[15] = males, concentration 7.5 ×10^−6%
[16] = males, concentration 12.5 ×10^−6%
[17] = 10 μg intramuscularly daily for 10 days

## C[C@H](N)C(=O)N[C@@H](CCC(=O)O)C(=O)N[C@@H](CC(=O)O)C(=O)NCC(=O)O [L-Ala-L-Glu-L-Asp-Gly tetrapeptide, L-alanyl-L-glutamyl-L-aspartyl-glycine] (H-AEDG-OH)
[1]; both sexes
  LSmax without taking into consideration intersexual distinctions: notably extended
[1]; females
  G 10^2 (parameter of Gomperz equation): 4.3 ± 0.90 days^−1
  LnR0 (parameter of Gomperz equation): -3.806 ± 0.2580 day⁻¹
  MRDT: 3.8
  Type of geroprotector (survival rate curves and Gomperz charts): geroprotector of the 1st type
  ALS: 20 ± 1.3 days
  Me: 17 days
  LSmax (maximal life span): 44 ± 1.9
[1]; males
  G 10^2 (parameter of Gomperz equation): 10.9 ± 3.45 days^−1
  LnR0 (parameter of Gomperz equation): −5.496 ± 0.711 days^1
  MRDT: 2.9
  Type of geroprotector (survival rate curves and Gomperz charts): geroprotector of the 3rd type
  ALS: 24 ± 0.96 days
  Me: 28.5 days
  LSmax (maximal life span): 33 ± 0.9
[2]; females
  Chemoluminescence intensity: 4.61 ± 0.395 conv. unit/mg of protein per p
[2]; males
  Chemoluminescence intensity: 4.93 ± 0.109 conv. unit/mg of protein per p
[3]; [5]
  ALS ± statistic errors: 35.41 ± 1.07
  Alterations in ALS: 13.4%
[3]; females, concentration 0.01 ×10^−6%, listed as L-Ala-L-Glu-L-Asp-Gly
  Alterations in ALS: +13.4%
[3]; [6]
  ALS ± statistic errors: 35.41 ± 1.07
  Alterations in ALS: 11.8%
[3]; females, concentration 0.1 ×10^−6%, listed as L-Ala-L-Glu-L-Asp-Gly
  Alterations in ALS: +11.8%
[3]; [7]
  ALS ± statistic errors: 35.76 ± 1.35
  Alterations in ALS: −1.1%
[3]; [8]
  ALS ± statistic errors: 38.04 ± 1.56
  Alterations in ALS: +3.2%
[3]; [9]
  ALS ± statistic errors: 31.16 ± 1.21
  Alterations in ALS: −7.6%
[3]; [10]
  ALS ± statistic errors: 37.06 ± 1.12
  Alterations in ALS: +5.6%
[3]; in vivo
  Duration of stage development (lack of genotoxic effect): did not alter the duration of their stage development
[3]; [11]
  ALS ± statistic errors: 36.47 ± 1.09
  Alterations in ALS: +12.0%
[3]; [12]
  ALS ± statistic errors: 34.85 ± 1.18
  Alterations in ALS: +10.8%
[3]; [13]
  ALS ± statistic errors: 36.77 ± 1.44
  Alterations in ALS: +13.3%
[3]; [14]
  ALS ± statistic errors: 37.74 ± 1.16
  Alterations in ALS: +11.3%
[3]; [15]
  ALS ± statistic errors: 39.98 ± 0.99
  Alterations in ALS: −0.03%
[3]; [16]
  ALS ± statistic errors: 33.96 ± 1.01
  Alterations in ALS: −9.0%
catalase; females
  Catalase activity: 98.8 ± 1.62 mmole H2O2/mg of protein per min.
catalase; males
  Catalase activity: 132.3 ± 3.68 mmole H2O2/mg of protein per min.
[4]; [17]
  Clinical state by the end of the treatment: improvement in clinical state by the end of the treatment was observed in the overwhelming majority of patients
  External respiratory function (VBC, MVexhR, FEV1, TV/TLC) immediately after treatment: did not reveal any essential alterations
  Reaction to Berotek on the level of distal bronchi: showed an improvement
[4]; at night and in the daytime
  Excretion of 6-sulfatoxymelatonin in urine: increased

From patent US6727227B1, “Tetrapetide revealing geroprotective effect, pharmacological substance on its basis, and the method of its application” (Obschestvo S Ogranichennoi Otvetstven-Nostiju “Klinika …, priority 2002, dated 2004)
